Like-named read-outs stand apart in the source and are kept apart here.
How the values were obtained:
[1] = test system: target gene expression of the CP2c transcription factor complex; assay: Luc reporter assay, GATA1 enhancer, 293T cells transduced with CBP complex protein overexpression vectors; format: cell-based
Description: Therefore, Luc reporter assay was carried out to analyze whether a decrease in the target gene expression of the CP2c transcription factor complex due to MBD2 or p66α overexpression is restored by the treatment with a compound for inhibiting the interaction between the MBD2 and p66α selected in the previous step (FIGS. 2A and 2B). Here, as a CP2c transcription factor target sequence that controls Luc reporter gene expression, a GATA1 enhancer was used, and 293T cells were transduced with various combinations of CBP complex protein overexpression vectors and then used for analysis.

[2] = test system: MDA-MB-231, HCT116, MEL and HL60 cell lines; assay: In vitro cancer cell migration and invasion, Trans-well insert; format: cell-based; conditions: 10 μM, in comparison with controls, all cell lines
Description: Accordingly, to confirm whether EMT and metastasis are inhibited by the treatment with the compounds of Formulas 1 and 2, in vitro cancer cell migration and invasion abilities were analyzed, and the result is shown in FIGS. 3A and 3B below.

[3] = test system: HCT116 and MDA-MB-231 cell lines; assay: Western blotting of EMT-associated marker proteins; format: cell-based; conditions: 10 μM, 48 hours
Source text: Therefore, the compounds of Formulas 1 and 2 according to the present invention may be excellent leading materials in the development of therapeutic agents for metastasis.

[4] = test system: leukemia cell lines (KCL22, MEL, THP-1, HL60, HEL, U937, KG-1, and K562); assay: MTT assay cell viability, leukemia cell lines; format: cell-based
Description: (§1) Lymphoid leukemia cell lines (Raji, Molt4, IM9, Jurkat, CCRF-CEM, and Daudi), leukemia cell lines (KCL22, MEL, THP-1, HL60, HEL, U937, KG-1, and K562), and solid tumor cell lines (HCT116 colorectal cancer cell line, BEAS2B lung epithelial cell line, 293T fetus kidney epithelial cell line, Hep3B liver cancer cell line, MCF7 and MDA-MB-231 breast cancer cell lines, MCF10A breast epithelial cell line, and U373MG brain tumor cell line) were treated with a compound at different concentrations (0, 1, 10, 100, 1,000, and 10,000 μM), cultured for 4 days, and subjected to MTT assay every 24 hours to measure cell viability. 48 hours after the treatment with the compound, a morphological change of the cells was observed, and cell images were taken. IC50 values caused by the treatment with each compound were calculated using the Graph Prism Pad 6 program.

[5] = test system: lymphoid leukemia cell lines (Raji, Molt4, IM9, Jurkat, CCRF-CEM, and Daudi); assay: MTT assay cell viability, lymphoid leukemia cell lines; format: cell-based; conditions: average
Description: as §1

[6] = test system: solid tumor cell lines (HCT116, BEAS2B, 293T, Hep3B, MCF7, MDA-MB-231, MCF10A, U373MG); assay: MTT assay cell viability, solid tumor cell lines; format: cell-based; conditions: average
Description: as §1

MEL cell line [7] = assay: Leukemia cell line-implanted animal model (MEL cell line intravenously injected into immunodeficient mice); format: in vivo
Source text: The result is shown in FIGS. 9A, 9B, 9C, 9D, 9E, 9F, 9G, 9H, 9I and 9J below.
However, a white blood cell level was reduced due to the treatment with the compound at a slightly higher concentration, but the histological characteristics of the major organs as well as the overall hematological characteristics were normal (FIGS. 9D and 9E).
Meanwhile, to confirm whether the compound of Formula 1 can treat tumors generated in the animal models, the MEL cell line was intravenously injected, after 7 days, the compound of Formula 1 was intravenously injected five times at intervals of three days, and then, on the 21th day, the mice were sacrificed to be subjected to analysis by the above-described method (FIG. 9F).

MEL cell line [8] = assay: Cell cycle analysis by FACS and karyotype analysis of MEL cells; format: cell-based, murine
MEL cells = assay: Western blotting of cell cycle- and apoptosis-associated marker proteins in MEL cells; format: cell-based, murine
Source text: In addition, as a western blotting result to show the change in the expression of cell cycle-associated marker proteins according to the concentration and time of the treated compound of Formula 1, it was confirmed that all activities of cyclin/CDK controlling the checkpoints of the cell cycle were decreased. Therefore, referring to FIG. 13, it was seen that overall progression of the cell cycle was inhibited by the treatment with the compound of Formula 1, and aneuploidy and cell death were induced.

[9] = test system: various cancer cell lines; assay: MTT assay cell viability, all cancer cell lines; format: cell-based
Description: as §1

[10] = dosing started 7 days after MEL injection, day 21
[11] = 16.5 μM and 40 μM, western blotting over time

NCC(=O)NC[C@H]1COc2ccccc2O1 [Formula 1]
restoration of the inhibition of target gene expression by MBD2 overexpression [1]: did not restore | restoration of the inhibition of target gene expression by p66α overexpression [1]: restored | effect on migration and invasion abilities [2]: significant inhibitory effect | expression of epithelial cell marker proteins (β-catenin, E-cadherin) [3]: decreased | expression of mesenchymal cell marker proteins (Snail, slug, N-cadherin) [3]: significantly decreased | IC50 ([4]; average, read-out: IC50 average): 50 µM | IC50 ([4]; range over cell lines, read-out: IC50 values): 6 to 218 µM | IC50 [5]: 213 µM | IC50 [6]: 1.78 mM | side effects in normal tissue/blood (MEL cell line [7]; MEL-implanted mice): no side effects | histological characteristics of the major organs and overall hematological characteristics (MEL cell line [7]; dosing from MEL injection, day 16): normal | histological characteristics of the major organs and overall hematological characteristics (MEL cell line [7]; [10]): normal | tumor cells in the blood, spleen and liver (MEL cell line [7]; [10]): no tumor cells | splenomegaly caused by the MEL cells (MEL cell line [7]; dosing started 7 days after MEL injection, i.v. five times at intervals of three days, day 21, concentration-dependent): disappeared | splenomegaly caused by the MEL cells (MEL cell line [7]; i.v. 12.2, 24.4, 48.8 μg/Kg five times at intervals of three days from MEL injection, day 16, concentration-dependent): disappeared | tumor cells in the blood, spleen and liver (MEL cell line [7]; i.v. five times at intervals of three days from MEL injection, day 16): no tumor cells | white blood cell level (MEL cell line [7]; slightly higher concentration, day 16): reduced | G0/G1 group (MEL cell line [8]; FACS): reduction | G2/M group (MEL cell line [8]; FACS): increase | aneuploidy cell group (MEL cell line [8]; FACS): significant increases | subG1 (cell group dying by apoptosis) (MEL cell line [8]; FACS): significant increases | aneuploidy (MEL cell line [8]; FACS after synchronization at G1/S by thymidine double block): remarkably induced | chromosomes (karyotype analysis) (MEL cell line [8]; karyotype analysis): abnormally increased | apoptosis-associated caspases (MEL cells; [11]): activated | expression of the apoptosis inhibition marker (MEL cells; [11]): decreased | expression of the apoptosis promotion marker (MEL cells; [11]): increased | activities of cyclin/CDK controlling the checkpoints of the cell cycle (MEL cells; western blotting, by concentration and time): decreased

CC(C)(C)OC(=O)N1CC[C@@H](CC(=O)CN)C1 [Formula 2]
restoration of the inhibition of target gene expression by MBD2 overexpression [1]: restored | restoration of the inhibition of target gene expression by p66α overexpression [1]: did not restore | effect on migration and invasion abilities [2]: significant inhibitory effect | expression of epithelial cell marker proteins (β-catenin, E-cadherin) [3]: decreased | expression of mesenchymal cell marker proteins (Snail, slug, N-cadherin) [3]: significantly decreased | IC50 values (in words) ([9]; uniform in all cancer cell lines): slightly higher IC50 values | growth and cell death of cell lines ([9]; various cancer cell lines): effects of inhibiting the growth and inducing cell death

Reference: patent publication US10610514B2, “Composition comprising compound inhibiting interactions of MBD2 and P66α for anti-metastasis and prevention and treatment of cancer disease” (Industry-University Cooperation Foundation Hanyang …, priority 2016, dated 2020)
